According to paper PMC9964746, “Mechanism of Action and Structure–Activity Relationships of Tetracyclic Small Molecules Acting as Universal Positive Allosteric Modulators of the Cholecystokinin Receptor” (Membranes, 2023):
Values joined by “and” are separate entries in the source; they are usually repeats but may differ in a detail not shown here. Equal entries are not always repeated.

Tests used:
Assay type in all cases: cell-based
[1] = biological target: T1, vasopressin-2 receptor (AVP2R) (Homo sapiens, UniProt P30518); assay: AVP2R cAMP HTRF accumulation assay; details: CHO-K1 AVP2R cells; for AVP2R PAM (cAMP) Score (activity score = normalized Emax × pEC50): PAM format; for Emax / EC50: PAM format with vasopressin, original hits: agonist and PAM data combined, average ± SD
T1 construct: expressed in transfected cells; host or cells: CHO-K1 (PAM format); HEK-293 (agonist format)
Protocol: Possible off-target biological effects. […] Here, we tested them at the vasopressin-2 receptor (AVP2R), representing a class A GPCR structurally related to CCK1R, which is coupled to Gs. The activity at AVP2R was tested using AVP2R-overexpressing CHO-K1 (PAM format) or HEK-293 (agonist format) cells, stimulating the cells with vasopressin. Original hits were tested in both agonist and PAM formats. Since all recognized compound responses were present in both formats, we continued to screen analogs in only the PAM format (also able to capture agonist effects) in CHO-K1 AVP2R cells for potential enhanced sensitivity. The dose–response data sets for original hits were combined, as the PAM and agonist effects were indistinguishable. In brief, arginine vasopressin (AVP) orthosteric stimulator dilutions and ligand and compound dose–response titrations in DMSO were transferred onto a 1536-well plate (Corning #3725) using an Echo liquid handler (Labcyte). Thawed cryopreserved cell stocks were diluted in stimulation buffer consisting of HBSS (Hank’s Balanced Salt Solution with Ca^2+ and Mg^2+, Gibco #24020117), 5 mM HEPES (hydroxyethyl piperazineethanesulfonic acid), 0.5 mM IBMX (3-isobutyl-1-methylxanthine, Sigma-Aldrich), and 0.075% BSA (7.5% DTPA-purified bovine serum albumin, PerkinElmer). The resulting cell suspension was added to the microplate and incubated with test compounds at room temperature for 30 min. Then, the detection reagents from the Cisbio cAMP Gs Dynamic HTRF detection kit were added. The plate was kept at room temperature for 30 min and read on a PHERAstar FSX microplate reader. Dose–response curves were performed as 16-point 2-fold dilutions in duplicate in at least two independent experiments.

[2] = biological target: T2, CCK1R (Homo sapiens, UniProt P32238); assay: IP-One accumulation TR-FRET assay, agonist format, HEK-293 CCK1R cells; parameters: expressed in transfected cells; host or cells: HEK-293; details: for Emax: HEK293, relative to CCK control, read-out: CCK1R Ago (IP-One) Emax; for Emax / EC50: average ± SD; for EC50: read-out: CCK1R Ago (IP-One) EC50
T2 sequence (P32238 1-428): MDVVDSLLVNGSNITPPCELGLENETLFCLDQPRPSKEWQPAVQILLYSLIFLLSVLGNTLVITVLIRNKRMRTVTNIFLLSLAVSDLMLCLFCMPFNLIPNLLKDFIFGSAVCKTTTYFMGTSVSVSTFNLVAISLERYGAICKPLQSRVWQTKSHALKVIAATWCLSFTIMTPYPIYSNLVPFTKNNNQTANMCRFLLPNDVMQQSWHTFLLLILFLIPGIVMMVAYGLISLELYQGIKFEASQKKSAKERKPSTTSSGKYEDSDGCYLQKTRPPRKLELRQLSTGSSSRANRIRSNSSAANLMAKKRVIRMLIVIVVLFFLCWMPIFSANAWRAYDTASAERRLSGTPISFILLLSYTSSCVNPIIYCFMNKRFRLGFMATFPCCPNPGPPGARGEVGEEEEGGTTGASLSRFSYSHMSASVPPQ
Protocol: (§1) For structure–activity relationship studies, we performed myo-inositol-1-phosphate (IP-One) accumulation assays with TR-FRET technology applied to the HEK-293 cell line overexpressing CCK1Rs, as we had described in our high throughput screening effort. In brief, thawed cryopreserved cell stocks were re-suspended in IP-One assay media consisting of phenol-red free DMEM (Corning, Corning, NY, USA, #17-205-CV) with 10% FBS, 1% penicillin (10,000 units)/streptomycin (10 mg) (Pen/Strep, Thermo Fisher Scientific, Waltham, MA, USA, Gibco #15140122), and 1% L-glutamine (200 mM) (Gibco #25030081) and diluted to required cell densities. Then, the cell suspension was dispensed into a 1536-well tissue culture microplate (Corning, #3727), and the plate was incubated overnight at 37 °C and 5% CO^2. After 16–20 h, DMSO or compounds were added with an Echo liquid handler (Labcyte, San Jose, CA, USA), resulting in a top final compound concentration of 50 µM diluted 2-fold for 16-point dose–responses. For the positive allosteric modulator (PAM) format, orthosteric stimulator (CCK) dilutions for control wells were prepared in assay media containing 150 mM lithium chloride (LiCl, 50 mM final, Sigma-Aldrich, St Louis, MO, USA, #L7026). After a 30 min incubation of test compounds at 37 °C and 5% CO2, orthosteric stimulator dilutions (for PAM format) or equivalent dilutions of DMSO (for agonist format) were added to designated wells using BioRaptr (Beckman Coulter, Brea, CA, USA). In addition, CCK control ligand dilutions were included on each test plate. After that, the plate was incubated for 1 h at 37 °C and 5% CO^2 and equilibrated to room temperature. Detection reagents from the IP-One Gq detection kit from Cisbio (Cisbio US Inc., Bedford, MA, USA, #62IPAPEJ) were added, and after 1 h at RT, IP-One content was measured with a PHERAstar FSX microplate reader (BMG Labtech, Ortenberg, Germany). Control ligand dose–responses were analyzed using GraphPad Prism 9.3.1 (San Diego, CA, USA) to validate adequate control and test well concentrations for positive allosteric modulation (PAM) and agonist formats. Dose–response curves were performed as 16-point 2-fold dilutions in duplicates in at least three independent experiments. Large data sets were uploaded and analyzed with CBIS (Chemical and Biology Information System software, ChemInnovation Software, Inc., San Diego, CA, USA). Further data analysis for detailed SAR studies was conducted using the D360 software (Certara).
(§2) The potency and efficacy data for these compounds were used to calculate their activity scores using the following formula: Activity Score = normalized Emax × pEC50. Normalized Emax represents the efficacy of the compound as a fractional response relative to that of the CCK control ligand. pEC50 represents the positive logarithmic value of compound EC50 concentrations in (M).

[3] = biological target: T2, CCK1R; assay: IP-One accumulation TR-FRET assay, PAM format, HEK-293 CCK1R cells; parameters: expressed in transfected cells; host or cells: HEK-293; details: for Emax: HEK293, relative to CCK control; for Emax / CCK1R PAM (IP-One) Score (activity score = normalized Emax × pEC50) / EC50: HEK-293 CCK1R cells; for Emax / CCK1R PAM (IP-One) Score (activity score = normalized Emax × pEC50): PAM format; for Emax / EC50: average ± SD; for CCK1R IP-One activity (in words): PAM and agonist formats; for EC50: PAM format with EC20 CCK
Protocol: as §1, §2

T1 sequence (P30518 whole entry): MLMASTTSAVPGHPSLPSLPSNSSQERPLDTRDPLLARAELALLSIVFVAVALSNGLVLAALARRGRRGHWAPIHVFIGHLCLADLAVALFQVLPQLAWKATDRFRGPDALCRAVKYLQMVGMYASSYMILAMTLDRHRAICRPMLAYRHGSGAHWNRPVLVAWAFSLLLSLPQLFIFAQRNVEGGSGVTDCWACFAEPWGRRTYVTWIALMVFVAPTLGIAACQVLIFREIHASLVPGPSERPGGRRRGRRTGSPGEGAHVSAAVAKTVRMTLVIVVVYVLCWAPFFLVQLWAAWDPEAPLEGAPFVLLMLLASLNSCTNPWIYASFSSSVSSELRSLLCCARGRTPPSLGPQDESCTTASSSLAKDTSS

SMILES	AVP2R PAM (cAMP) Score (activity score = normalized Emax × pEC50) [1]	Emax [1] [%]	CCK1R Ago (IP-One) Score (activity score = normalized Emax × pEC50) [2]	Emax [2] [%]	Emax [3] [%]	CCK1R PAM (IP-One) Score (activity score = normalized Emax × pEC50) [3]	CCK1R IP-One activity (in words) [3]	EC50 [1] [µM]	EC50 [3] [µM]	EC50 [2] [µM]
C/C(Br)=C\CSc1ncnc2c1sc1nc(N3CCOCC3)c3c(c12)CCCC3 [CMP-44]	0	0	0	0	0	0	displayed no effects			
c1ccc(CCNc2ncnc3c2sc2nc(N4CCOCC4)c4c(c23)CCCC4)cc1 [CMP-42]	0	0	0	0	0	0	None of these analogs showed any CCK1R activity			
CCCc1nc2oc3c(NN)ncnc3c2c2c1CCCC2 [CMP-53]	2.95	61 ± 12	0	0	0	0		15.3 ± 9.8		
O=C(CSc1ncnc2c1sc1nc(N3CCOCC3)c3c(c12)CCCC3)Nc1ccc(Br)cc1 [CMP-41]	0	0	0	0	0	0				
CN(C)CCNc1ncnc2c1sc1nc(N3CCCCC3)c3c(c12)CCCC3 [CMP-35]	1.6 and 1.59	31	0	0	36 ± 20	1.5 and 1.49		7.9 ± 2.5	31.3 ± 14.9	
CN(C)CCCNc1nnnc2c1sc1nc(N3CCCCC3)c3c(c12)CCCC3 [CMP-23]	2.9 and 2.93	53 ± 3	1.85	41 ± 1	38 ± 13	1.86		3.1 ± 1.3	9.6 ± 3.6	30 ± 4.9
CN(C)CCNc1ncnc2c1sc1nc(N3CCOCC3)c3c(c12)CCCC3 [CMP-4]	1.2	24.5 ± 7.1	0	0	62 ± 33	2.71		12.8 ± 14	14.4 ± 1.5	
C=CCNc1ncnc2c1sc1nc(N3CCOCC3)c3c(c12)CCCC3 [CMP-50]	0	0	0	0	0	0	None of these analogs showed any CCK1R activity			
CCN(CC)CCNc1ncnc2c1sc1nc(-c3ccccc3)c3c(c12)CCCC3 [CMP-11]	2.4 and 2.44	44 ± 8	1.0 and 0.96	21 ± 2	45 ± 6	2.3 and 2.27		3.2 ± 1.1	9.1 ± 4.8	27.1 ± 15.3
NNc1ncnc2c1sc1nc(N3CCOCC3)c3c(c12)CCCC3 [CMP-51]	0	0	0	0	0	0	significantly diminished responses			
O=C(O)CSc1ncnc2c1sc1nc(N3CCOCC3)c3c(c12)CCCC3 [CMP-45]	1.46	33 ± 13	0	0	0	0	displayed no effects	37.9 ± 7		
Sc1nnnc2c1sc1nc(N3CCOCC3)c3c(c12)CCCC3 [CMP-52]			0	0	0	0	displayed no effects			
